This experiment relates to rats with partial urethra obstruction. Briefly: Bladder capacity in rats with partial outlet obstruction (cystometry). In kind it is in vivo, rat. The note with it: oral. On the procedure:
The test was carried out in accordance with the method of Saito et al. (J. Urol., 150: 1145–1151 (1993)). Male SD rats of 8 to 9 weeks of age (supplied by Japan SLC) were used in the test. Five to seven animals of these rats were put in each metal cage and reared by allowing them to freely take commercially available chow and water, in a rearing room at a room temperature of from 19 to 25° C. and a humidity of from 30 to 70% under illumination for 12 hours (from 7 a.m. to 7 p.m.) per day. Partial urethra obstruction was induced in rats, as a model of urethral obstruction mimicking BPH. Each rat was anesthetized by intraperitoneal administration of 50 mg/kg of pentobarbital sodium (Dainippon Pharmaceutical) and placed in dorsal position. The abdomen was cut in a length of about 1 cm by median incision to expose the bladder, prostate and the urethra. The bladder neck and bladder base were peeled from the prostate, and two surgical sutures (No. 3, Natsume Seisakusho) were passed behind the urethra base. A polyethylene tube (PE-200; Becton Dickinson) was placed along the urethra, and the urethra was mildly double-ligated together with the tube. The ligation was carried out in such a manner that the urethra was not pressed by the polyethylene tube and the sutures were not loosened. The polyethylene tube was pulled out and the urethra was constricted. On the same day of the above surgery, bladder catheter indwelling operation was carried out. The bladder was exposed, and a polyethylene tube (PE-50; Becton Dickinson) was inserted from the bladder top and fixed with a surgical suture. The other end was exposed subcutaneously from the back neck, plugged and then fixed to the skin with the surgical suture. The bladder was returned to the original position and the abdomen was sutured with the surgical suture. Five to seven days after the urethra obstruction and catheter indwelling operations, the rats with partial urethra obstruction and those subjected to sham-operation were put in Ballman cages (KN-326-1, Natsume Seisakusho) under the restricted state, and a three-way cock was connected to the bladder catheter. A pressure transducer (DX-360; Nihon Kohden) was connected to one end of the three-way cock, and the intravesical pressure signal was amplified via a strain pressure amplifier (AP-601G; Nihon Kohden), measured by a polygraph (RPM-6008; Nihon Kohden) and recorded on a thermal array recorder (RTA-1200; Nihon Kohden). A syringe filled with physiological saline (Otsuka Pharmaceutical Industries, Tokushima, Japan) was connected to the other end of the three-way cock and fixed to an infusion pump (KDS 220; Neuroscience). An FD pickup (TB-611T; Nihon Kohden) equipped with a cup was placed on the downside of the Ballman cage and connected to the strain gauge pressure amplifier, and the micturition volume was recorded on the thermal array recorder as the tension change. After the completion of the preparation, physiological saline kept at room temperature was continuously injected into the bladder at a flow rate of 6 mL/h for about 30 minutes, and the animals periodically expressing micturition contraction were used in the test. After they are allowed to stand for 30 to 60 minutes, residual urine was manually expressed by finger pressure. Five minutes thereafter, the injection of physiological saline into the bladder was started again, and the injection was immediately stopped when micturition was observed. The bladder capacity was calculated from the period of time until expression of micturition (injection rate 6 mL/h×injection period). The residual urine volume was calculated by subtracting the micturition volume at the time of bladder contraction (voided volume per micturition) from the bladder capacity. By repeating 30 minutes of bladder injection of physiological saline 2 to 3 times, respective values were measured and used as the test compound or solvent pre-administration values. […]

Where [1] appears, read: before administration (baseline of the Compound 1 group).
[2] abbreviates: rats with partial urethra obstruction.

Where the note is “1 h after administration”, `C[C@](O)(C(=O)Nc1cccc2c1C(=O)c1sccc1CS2(=O)=O)C(F)(F)F` [Compound 1, (S)-(+)-N-(5,5-dioxido-10-oxo-4,10-dihydrothieno[3,2-c][1]benzothiepin-9-yl)-3,3,3-trifluoro-2-hydroxy-2-methylpropanamide] had a Bladder capacity of 0.54 ± 0.08 mL, a Residual urine volume of 0.18 ± 0.07 mL and a micturition volume of 0.36 ± 0.07 mL. Where the note is “2 h after administration”, this compound registered a Bladder capacity of 0.46 ± 0.07 mL, a Residual urine volume of 0.10 ± 0.05 mL and a micturition volume of 0.36 ± 0.07 mL. For the setting “3 h after administration”, this compound showed a Bladder capacity of 0.44 ± 0.07 mL, a Residual urine volume of 0.18 ± 0.07 mL and a micturition volume of 0.27 ± 0.01 mL. Under setting [1], this compound yielded a Bladder capacity of 0.40 ± 0.04 mL, a Residual urine volume of 0.15 ± 0.02 mL and a micturition volume of 0.25 ± 0.04 mL. For the same compound, under setting [2], the “Effect on bladder capacity (in words)” value is recorded as “tended to increase bladder capacity” and the “Effect on micturition volume (in words)” value is “significantly increased micturition volume”.

For the origin of these results see US7122173B2, “Agent for the treatment of bladder irritative symptoms accompanied by benign prostatic hyperplasia” (Kyowa Hakko Kogyo Co., Ltd., priority 2001, dated 2006).
